Source: ChEMBL document CHEMBL6114986, “Vitexin alleviates lipid metabolism disorders and hepatic injury in obese mice through the PI3K/AKT/mTOR/SREBP-1c pathway” (Eur J Med Chem, 2025)
Active and inactive are the calls of the source. The calls are words filed in the database; no cut-off is given here.

What was measured:
Type in all cases: functional, organism-based
Mus musculus [1] = assay: Anti-obesity activity in C57BL/6 mouse assessed as weight difference at low dose administered intragastrically once daily for 5 weeks (reference value: 9.80 +/- 0.97 g); settings: route ig
Mus musculus [2] = assay: Anti-obesity activity in C57BL/6 mouse assessed as reduction in adipocyte volume at low to high dose administered intragastrically once daily for 5 weeks by CT analysis; settings: route ig
Mus musculus [3] = assay: Anti-obesity activity in C57BL/6 mouse assessed as reduction in liver IL-6 level at high dose administered intragastrically once daily for 5 weeks relative to control; set-up: scale not given: the % may be the effect or the level left; settings: route ig
Mus musculus [4] = assay: Anti-obesity activity in C57BL/6 mouse assessed as decrease in […] level in liver at low to high dose administered intragastrically once daily for 5 weeks by immunoblot analysis; settings: route ig
Mus musculus [5] = assay: Anti-obesity activity in C57BL/6 mouse assessed as liver TNF-alpha level at high dose administered intragastrically once daily for 5 weeks (reference value: 5940.65 +/- 261.75 pg/g); settings: route ig
Mus musculus [6] = assay: Anti-obesity activity in C57BL/6 mouse assessed as final weight at high dose administered intragastrically once daily for 5 weeks (reference value: 28.86 +/- 0.86 g); settings: route ig
Mus musculus [7] = assay: Anti-obesity activity in C57BL/6 mouse assessed as decrease in ratio of p-IkappaBalpha/IkappaBalpha levels in liver at low to high dose administered intragastrically once daily for 5 weeks by immunoblot analysis; settings: route ig
Mus musculus [8] = assay: Anti-obesity activity in C57BL/6 mouse assessed as reduction in subabdominal fat thickness at low to high dose administered intragastrically once daily for 5 weeks by CT analysis; settings: route ig
Mus musculus [9] = assay: Anti-obesity activity in C57BL/6 mouse assessed as initial weight at low dose administered intragastrically once daily for 5 weeks (reference value: 19.06 +/- 0.94 g); settings: route ig
Mus musculus [10] = assay: Anti-obesity activity in C57BL/6 mouse assessed as serum TC level at low dose administered intragastrically once daily for 5 weeks (reference value: 11.12 +/- 0.32 mmol/g)
Mus musculus [11] = assay: Anti-obesity activity in C57BL/6 mouse assessed as decrease in ratio of p-NFkappaB/NFkappaB levels in liver at low to high dose administered intragastrically once daily for 5 weeks by immunoblot analysis; settings: route ig
Mus musculus [12] = assay: Anti-obesity activity in C57BL/6 mouse assessed as liver index at high dose administered intragastrically once daily for 5 weeks (reference value: 3.97 +/- 0.09 %); settings: route ig
Mus musculus [13] = assay: Anti-obesity activity in C57BL/6 mouse assessed as serum TG level at low dose administered intragastrically once daily for 5 weeks (reference value: 13.13 +/- 1.10 mmol/g)
Mus musculus [14] = assay: Anti-obesity activity in C57BL/6 mouse assessed as reduction in inflammatory cell infiltration in liver at low to high dose administered intragastrically once daily for 5 weeks by H and E staining based analysis; settings: route ig
Mus musculus [15] = assay: Anti-obesity activity in C57BL/6 mouse assessed as reduction in liver TNF-alpha level at high dose administered intragastrically once daily for 5 weeks relative to control; set-up: scale not given: the % may be the effect or the level left; settings: route ig
Mus musculus [16] = assay: Anti-obesity activity in C57BL/6 mouse assessed as liver weight at high dose administered intragastrically once daily for 5 weeks (reference value: 1.15 +/- 0.04 g); settings: route ig
Mus musculus [17] = assay: Anti-obesity activity in C57BL/6 mouse assessed as weight difference at high dose administered intragastrically once daily for 5 weeks (reference value: 9.80 +/- 0.97 g); settings: route ig
Mus musculus [18] = assay: Anti-obesity activity in C57BL/6 mouse assessed as liver index at low dose administered intragastrically once daily for 5 weeks (reference value: 3.97 +/- 0.09 %); settings: route ig
Mus musculus [19] = assay: Anti-obesity activity in C57BL/6 mouse assessed as serum TC level at high dose administered intragastrically once daily for 5 weeks (reference value: 11.12 +/- 0.32 mmol/g)
Mus musculus [20] = assay: Anti-obesity activity in C57BL/6 mouse assessed as liver IL-6 level at low dose administered intragastrically once daily for 5 weeks (reference value: 1042.25 +/- 21.85 pg/g)
Mus musculus [21] = assay: Anti-obesity activity in C57BL/6 mouse assessed as final weight at low dose administered intragastrically once daily for 5 weeks (reference value: 28.86 +/- 0.86 g); settings: route ig
Mus musculus [22] = assay: Anti-obesity activity in C57BL/6 mouse assessed as decrease in ratio of p-AKT/AKT levels in liver at low to high dose administered intragastrically once daily for 5 weeks by immunoblot analysis; settings: route ig
Mus musculus [23] = assay: Anti-obesity activity in C57BL/6 mouse assessed as decrease in ratio of p-mTOR/mTOR levels in liver at low to high dose administered intragastrically once daily for 5 weeks by immunoblot analysis; settings: route ig
Mus musculus [24] = assay: Anti-obesity activity in C57BL/6 mouse assessed as liver TNF-alpha level at low dose administered intragastrically once daily for 5 weeks (reference value: 5940.65 +/- 261.75 pg/g)
Mus musculus [25] = assay: Anti-obesity activity in C57BL/6 mouse assessed as initial weight at high dose administered intragastrically once daily for 5 weeks (reference value: 19.06 +/- 0.94 g); settings: route ig
Mus musculus [26] = assay: Anti-obesity activity in C57BL/6 mouse assessed as reduction in serum IL-18 level at high dose administered intragastrically once daily for 5 weeks relative to control; set-up: scale not given: the % may be the effect or the level left; settings: route ig
Mus musculus [27] = assay: Anti-obesity activity in C57BL/6 mouse assessed as serum IL-18 level at low dose administered intragastrically once daily for 5 weeks (reference value: 149.1 +/- 2.066 pg/ml)
Mus musculus [28] = assay: Anti-obesity activity in C57BL/6 mouse assessed as decrease in ratio of p-PI3K/PI3K levels in liver at low to high dose administered intragastrically once daily for 5 weeks by immunoblot analysis; settings: route ig
Mus musculus [29] = assay: Anti-obesity activity in C57BL/6 mouse assessed as liver weight at low dose administered intragastrically once daily for 5 weeks (reference value: 1.15 +/- 0.04 g); settings: route ig
Mus musculus [30] = assay: Anti-obesity activity in C57BL/6 mouse assessed as reduction in lipid droplets in liver at low to high dose administered intragastrically once daily for 5 weeks by H and E staining based analysis; settings: route ig
Mus musculus [31] = assay: Anti-obesity activity in C57BL/6 mouse assessed as serum IL-18 level at high dose administered intragastrically once daily for 5 weeks (reference value: 149.1 +/- 2.066 pg/ml)
Mus musculus [32] = assay: Anti-obesity activity in C57BL/6 mouse assessed as liver IL-6 level at high dose administered intragastrically once daily for 5 weeks (reference value: 1042.25 +/- 21.85 pg/g); settings: route ig
Mus musculus [33] = assay: Anti-obesity activity in C57BL/6 mouse assessed as decrease in IL-1beta level in liver at low to high dose administered intragastrically once daily for 5 weeks by immunoblot analysis; settings: route ig
Mus musculus [34] = assay: Anti-obesity activity in C57BL/6 mouse assessed as reduction in serum TG level at high dose administered intragastrically once daily for 5 weeks relative to control; set-up: scale not given: the % may be the effect or the level left; settings: route ig
Mus musculus [35] = assay: Anti-obesity activity in C57BL/6 mouse assessed as serum TG level at high dose administered intragastrically once daily for 5 weeks (reference value: 13.13 +/- 1.10 mmol/g)
Mus musculus [36] = assay: Anti-obesity activity in C57BL/6 mouse assessed as reduction in serum TC level at high dose administered intragastrically once daily for 5 weeks relative to control; set-up: scale not given: the % may be the effect or the level left; settings: route ig
Mus musculus [37] = assay: Anti-obesity activity in C57BL/6 mouse assessed as reduction in body weight at high dose administered intragastrically once daily for 5 weeks relative to control; set-up: scale not given: the % may be the effect or the level left; settings: route ig

For `O=c1cc(-c2ccc(O)cc2)oc2c([C@@H]3O[C@H](CO)[C@@H](O)[C@H](O)[C@H]3O)c(O)cc(O)c12`, the Activity (Mus musculus [1]) was 5.76 g, the Activity (Mus musculus [2]) was “Active” and the Activity (Mus musculus [3]) was 22.7%. For the same compound, the Activity (Mus musculus [4]) was “Active”, the Activity (Mus musculus [5]) was 4110 pg/g and the Activity (Mus musculus [6]) was 24.9 g. For the same compound, the Activity (Mus musculus [7]) was “Active”, the Activity (Mus musculus [8]) was “Active” and the Activity (Mus musculus [9]) was 21 g. The Activity (Mus musculus [10]) was 8.44 mmol/g, the Activity (Mus musculus [11]) was “Active” and the Activity (Mus musculus [12]) was 3.23 g. For the same compound, the Activity (Mus musculus [13]) was 8.71 mmol/g, the Activity (Mus musculus [14]) was “Active” and the Activity (Mus musculus [15]) was 30.8%. For the same compound, the Activity (Mus musculus [16]) was 0.8 g, the Activity (Mus musculus [17]) was 4.07 g and the Activity (Mus musculus [18]) was 3.6%. It also gave an Activity (Mus musculus [19]) of 7.81 mmol/g, an Activity (Mus musculus [20]) of 829 pg/g and an Activity (Mus musculus [21]) of 26.7 g. The Activity (Mus musculus [22]) was “Active”, the Activity (Mus musculus [23]) was “Active” and the Activity (Mus musculus [24]) was 5140 pg/g. The Activity (Mus musculus [25]) was 20.8 g, the Activity (Mus musculus [26]) was 27.6% and the Activity (Mus musculus [27]) was 125 pg/mL. The Activity (Mus musculus [28]) was “Active”, the Activity (Mus musculus [29]) was 1.06 g and the Activity (Mus musculus [30]) was “Active”. For the same compound, the Activity (Mus musculus [31]) was 108 pg/mL, the Activity (Mus musculus [32]) was 806 pg/g and the Activity (Mus musculus [33]) was “Active”. It also gave an Activity (Mus musculus [34]) of 37.3%, an Activity (Mus musculus [35]) of 8.23 mmol/g and an Activity (Mus musculus [36]) of 29.8%. For the same compound, the Activity (Mus musculus [37]) was 13.8%.
